Laboratory results taken from US6451807B1, “Methods of treating sexual dysfunction in an individual suffering from a retinal disease, class 1 congestive heart failure, or myocardial infarction using a PDE5 inhibitor” (Lilly Icos, LLC., priority 1999, dated 2002).

How the values were obtained:
[1] = molecular target: T1, Bovine PDE6 (Bos taurus, UniProt P11541+P23439); experiment: PDE6 enzyme inhibition, IC50 determination; assay type: biochemical; settings: for PDE6/PDE5: ratio of IC50 versus PDE6 to IC50 versus PDE5
T1 construct: Hypotonic extracts were prepared by suspending isolated ROS; tissue Dr. N. Virmaux, INSERM U338, Strasbourg; host or cells: bovine retina, rod outer segment hypotonic extract
T1 sequence (P11541 2-856 limits assumed): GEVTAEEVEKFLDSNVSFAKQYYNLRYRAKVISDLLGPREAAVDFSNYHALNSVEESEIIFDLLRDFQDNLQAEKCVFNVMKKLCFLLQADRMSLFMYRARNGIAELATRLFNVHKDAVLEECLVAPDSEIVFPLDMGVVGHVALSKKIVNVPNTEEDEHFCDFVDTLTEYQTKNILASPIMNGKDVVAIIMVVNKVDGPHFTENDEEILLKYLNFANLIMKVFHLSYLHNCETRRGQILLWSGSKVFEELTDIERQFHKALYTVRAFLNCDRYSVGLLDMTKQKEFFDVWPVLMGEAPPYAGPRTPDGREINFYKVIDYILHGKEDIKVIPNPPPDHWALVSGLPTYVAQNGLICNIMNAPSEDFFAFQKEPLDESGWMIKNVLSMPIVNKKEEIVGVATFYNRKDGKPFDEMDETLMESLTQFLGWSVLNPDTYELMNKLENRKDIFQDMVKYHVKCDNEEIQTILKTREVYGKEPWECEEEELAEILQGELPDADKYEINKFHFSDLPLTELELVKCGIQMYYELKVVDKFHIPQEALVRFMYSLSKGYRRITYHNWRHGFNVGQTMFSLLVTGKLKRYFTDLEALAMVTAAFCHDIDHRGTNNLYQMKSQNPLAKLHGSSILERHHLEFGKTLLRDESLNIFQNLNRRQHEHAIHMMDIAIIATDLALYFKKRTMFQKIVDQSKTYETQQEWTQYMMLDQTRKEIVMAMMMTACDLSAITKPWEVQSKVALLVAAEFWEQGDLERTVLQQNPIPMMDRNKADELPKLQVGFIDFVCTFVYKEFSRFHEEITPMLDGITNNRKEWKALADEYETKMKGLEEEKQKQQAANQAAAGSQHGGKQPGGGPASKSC
T1 sequence (P23439 2-850 limits assumed): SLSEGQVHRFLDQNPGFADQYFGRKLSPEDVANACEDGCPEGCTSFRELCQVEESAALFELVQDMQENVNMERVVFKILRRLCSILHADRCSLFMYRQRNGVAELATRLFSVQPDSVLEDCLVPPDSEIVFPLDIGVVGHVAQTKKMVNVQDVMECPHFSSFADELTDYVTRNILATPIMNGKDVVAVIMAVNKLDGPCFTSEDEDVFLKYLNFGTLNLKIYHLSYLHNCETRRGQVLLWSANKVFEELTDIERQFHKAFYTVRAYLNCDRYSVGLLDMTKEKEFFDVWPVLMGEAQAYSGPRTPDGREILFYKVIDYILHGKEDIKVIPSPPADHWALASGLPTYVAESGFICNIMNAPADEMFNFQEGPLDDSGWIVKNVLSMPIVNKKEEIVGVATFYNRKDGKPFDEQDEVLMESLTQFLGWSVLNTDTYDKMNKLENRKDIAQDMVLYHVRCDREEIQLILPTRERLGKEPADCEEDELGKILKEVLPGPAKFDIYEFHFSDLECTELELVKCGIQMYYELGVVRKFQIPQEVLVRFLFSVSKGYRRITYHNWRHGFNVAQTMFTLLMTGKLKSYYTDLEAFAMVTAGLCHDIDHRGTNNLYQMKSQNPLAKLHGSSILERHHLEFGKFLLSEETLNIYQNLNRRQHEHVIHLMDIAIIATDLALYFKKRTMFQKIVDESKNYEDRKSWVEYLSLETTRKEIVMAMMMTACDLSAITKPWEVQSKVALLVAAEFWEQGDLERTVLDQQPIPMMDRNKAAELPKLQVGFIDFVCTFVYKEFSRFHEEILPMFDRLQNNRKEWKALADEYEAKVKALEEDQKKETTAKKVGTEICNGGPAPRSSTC
T1 sequence (P04972 1-87 partner): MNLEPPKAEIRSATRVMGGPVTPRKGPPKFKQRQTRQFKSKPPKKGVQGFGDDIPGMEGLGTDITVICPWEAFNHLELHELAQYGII
Procedure: Bovine PDE6 was supplied by Dr. N. Virmaux, INSERM U338, Strasbourg. Bovine retinas were prepared as described by Virmaux et al., FEBS Letters, 12(6), pp. 325-328 (1971) and see also, A. Sitaramayya et al., Exp. Eye Res., 25, pp. 163-169 (1977). Briefly, unless stated otherwise, all operations were done in the cold and in dim red light. Eyes were kept in the cold and in the dark for up to four hours after slaughtering.
Preparation of bovine retinal outer segment (ROS) basically followed procedures described by Schichi et al., J. Biol. Chem., 224:529 (1969). In a typical experiment, 35 bovine retinas were ground in a mortar with 35 mL 0.066 M phosphate buffer, pH 7.0, made up to 40% with sucrose, followed by homogenization in a Potter homogenizer (20 up and down strokes). The suspension was centrifuged at 25,000×g for 20 minutes. The pellet was homogenized in 7.5 mL 0.006 M phosphate buffer (40% in sucrose), and carefully layered under 7.5 mL of phosphate buffer (containing no sucrose). Centrifugation was conducted in a swing-out rotor at 45,000×g for 20 minutes, and produced a pellet which is black at the bottom, and also a red band at the interface 0.066 M. phosphate—40% sucrose/0.066 M phosphate (crude ROS). The red material at the interface was removed, diluted with phosphate buffer, spun down to a pellet, and redistributed in buffered 40% sucrose as described above. This procedure was repeated 2 or 3 times until no pellet was formed. The purified ROS was washed in phosphate buffer and finally spun down to a pellet at 25,000×g for 20 minutes. All materials were then kept frozen until used.
Hypotonic extracts were prepared by suspending isolated ROS in 10 mM Tris-Cl pH 7.5, 1 mM EDTA, and 1 mM dithioerythritol, followed by centrifugation at 100,000×g for 30 minutes.
The preparation was reported to have a specific activity of about 35 nmoles cGMP hydrolyzed per minute per milligram protein.
Biophys. Acta, 384:430 (1975).

[2] = molecular target: T2, human PDE5 (Homo sapiens, UniProt O76074); experiment: PDE5 enzyme inhibition, IC50 determination; assay type: biochemical
T2 construct: made in house; host or cells: Saccharomyces cerevisiae protease-deficient strain BJ2-54 (ATCC 74465)

[3] = system: PDE4; settings: package insert; cited from earlier work
[4] = system: PDE1; settings: package insert; cited from earlier work
[5] = system: PDE3; settings: package insert; cited from earlier work
[6] = molecular target: PDE2 (Homo sapiens, UniProt O00408); settings: package insert; cited from earlier work
[7] = system: patients taking organic nitrates; settings: in combination with organic nitrates; cited from earlier work

PDE2, sequence (O00408 whole entry): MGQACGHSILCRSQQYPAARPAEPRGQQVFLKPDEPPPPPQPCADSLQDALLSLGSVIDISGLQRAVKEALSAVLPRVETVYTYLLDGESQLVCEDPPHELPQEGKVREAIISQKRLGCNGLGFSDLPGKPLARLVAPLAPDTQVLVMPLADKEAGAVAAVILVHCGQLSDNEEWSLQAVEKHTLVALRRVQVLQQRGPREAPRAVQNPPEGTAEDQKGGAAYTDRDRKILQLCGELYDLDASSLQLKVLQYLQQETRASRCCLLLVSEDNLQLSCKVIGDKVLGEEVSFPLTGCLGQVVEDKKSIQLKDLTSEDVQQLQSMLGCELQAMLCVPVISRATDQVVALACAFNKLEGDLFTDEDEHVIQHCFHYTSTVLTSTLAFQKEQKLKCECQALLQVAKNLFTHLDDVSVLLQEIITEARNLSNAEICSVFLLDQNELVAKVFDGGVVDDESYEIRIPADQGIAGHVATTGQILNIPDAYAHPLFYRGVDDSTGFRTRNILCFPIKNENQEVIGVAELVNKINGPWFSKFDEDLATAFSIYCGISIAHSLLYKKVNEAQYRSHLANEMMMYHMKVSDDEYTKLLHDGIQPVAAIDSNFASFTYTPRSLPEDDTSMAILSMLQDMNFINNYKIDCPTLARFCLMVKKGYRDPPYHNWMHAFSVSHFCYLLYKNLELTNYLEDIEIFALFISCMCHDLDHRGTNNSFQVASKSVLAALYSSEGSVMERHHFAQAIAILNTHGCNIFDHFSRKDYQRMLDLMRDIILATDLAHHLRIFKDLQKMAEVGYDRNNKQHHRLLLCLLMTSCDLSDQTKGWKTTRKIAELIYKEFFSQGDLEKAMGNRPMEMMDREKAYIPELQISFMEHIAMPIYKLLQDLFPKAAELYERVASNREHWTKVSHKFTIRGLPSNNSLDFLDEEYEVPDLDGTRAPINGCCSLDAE

IC50 [1] [nM]	PDE6/PDE5 [1]	IC50 [2] [nM]	Compound	more potent inhibitor of PDE5 than PDE4 [3]	more potent inhibitor of PDE5 than PDE1 [4]	more potent inhibitor of PDE5 than PDE3 [5]	more potent inhibitor of PDE5 than PDE2 [6]	effect on hypotensive effects of nitrates [7]
663	133	5	O=C1C2Cc3c([nH]c4ccccc34)C(c3ccc4c(c3)OCO4)N2C(=O)CN1Cc1ccc(NS(=O)(=O)C(F)(F)F)cc1 (centres unmarked) [Compound 1]	–	–	–	–	–
420	210	2	O=C1C2Cc3c([nH]c4ccccc34)C(c3ccc4c(c3)OCO4)N2C(=O)CN1Cc1cccc(NS(=O)(=O)C(F)(F)F)c1 (centres unmarked) [Compound 3]	–	–	–	–	–
729	146	5	CC1NC(=O)C2Cc3c([nH]c4ccccc34)C(c3ccc4c(c3)OCO4)N2C1=O (centres unmarked) [Compound 4]	–	–	–	–	–
–	–	–	CCCc1nn(C)c2c(=O)[nH]c(-c3cc(S(=O)(=O)N4CCN(C)CC4)ccc3OCC)nc12 [sildenafil]	greater than 1,000 fold	greater than 80 fold	greater than 1,000 fold	greater than 1,000 fold	potentiates the hypotensive effects of nitrates
